Experimental data: US11903929B2, “Method for inhibiting dengue virus infection” (FLORIDA STATE UNIVERSITY RESEARCH FOUNDATION, INC., priority 2018, dated 2024)
Where two headings read alike, the source gives them in different places. Where a SMILES comes first, the peptide text is derived from it. [ ]: non-standard residue; d: D form. ξ: configuration not given here. ξLac(3-iPr) = CC(C)CC(O)C(=O)O; NMeV = CN[CH](C(=O)O)C(C)C; NMeA = CN[CH](C)C(=O)O; βAla = NCCC(=O)O

Legend:
dengue virus = assay: Western blot analysis of viral protein levels in dengue virus-infected cells; format: cell-based
Protocol: These 19 compounds were further validated for antiviral activity by a Zika viral production assay and also by analyzing protein production via Western blot in dengue virus-infected cells. Human glioblastoma cells were treated with individual compounds for 1 hour prior to infection with Zika virus or dengue virus for 24 hours. After 24 hours, cellular lysate was harvested for Western blot analysis of viral protein levels (DENV infection), or supernatant collected and used to infect Vero cells in an infectious viral titer assay (ZIKV infection).

Zika virus = assay: Zika viral production assay (infectious viral titer assay on Vero cells); format: cell-based; conditions: read-out: Anti-ZIKV activity IC50
[1] = 1 uM, SNB-19 human glioblastoma cells, compound 1 hour prior to infection, 24 hours infection, Western blot of viral protein
[2] = 10 uM, SNB-19 human glioblastoma cells, compound 1 hour prior to infection, 24 hours infection, Western blot of viral protein
[3] = Zika virus, human glioblastoma cells treated 1 hour prior to infection, 24 hours, supernatant titered on Vero cells, values in E-notation, unit inferred
[4] = Zika virus, human glioblastoma cells treated 1 hour prior to infection, 24 hours, supernatant titered on Vero cells, μM

Compound	Anti-DENV Activity at 1 uM (SNB-19 cells) (dengue virus; [1])	Anti-DENV Activity at 10 uM (SNB-19 cells) (dengue virus; [2])	IC50 (Zika virus; [3]) [µM]	other results
CCCOc1ccc2nc(NC(=O)OC)[nH]c2c1 [NCGC00018238-09, methyl (6-propoxy-1H-benzo[d]imidazol-2 - yl)carbamate]	No	No	0.000233	–
COc1cc2c(c(OC)c1OC)-c1ccc(OC)c(=O)cc1[C@@H](NC(C)=O)CC2 [NCGC00025125-18, N-[(7S)-1,2,3,10-tetramethoxy-9-oxo-6,7-dihydro-5H-benzo[a]heptalen-7-yl]acetamide]	No	No	–	–
COc1ccccc1-c1nnc2sc(-c3ccc(N(C)C)cc3)nn12 [NCGC00071621-03, 4-(3-(2-methoxyphenyl)-[1,2,4]triazolo[3,4-b][1,3,4]thiadiazol-6-yl)-N,N-dimethylaniline]	–	–	–	Anti-DENV Activity at 1 uM (SNB-19 cells) (dengue virus; 1 uM): No; Anti-DENV Activity at 10 uM (SNB-19 cells) (dengue virus; 10 uM): No; IC50 (Zika virus; Zika virus, Vero): > 30 µM
O=C(Nc1cccnc1)c1cccs1 [NCGC00072088-02, N-(pyridin-3-yl)thiophene-2-carboxamide]	No	Yes	2.35	–
CCOc1ccc(N2C(=O)c3[nH]nc(-c4cccs4)c3C2c2cccc(F)c2)cc1 (centres unmarked) [NCGC00102779-01, 5-(4-ethoxyphenyl)-4-(3-fluorophenyl)-3-(thiophen-2-yl)-4,5-dihydropyrrolo[3,4-c]pyrazol-6(lH)-one]	No	No	9.24	–
COCCn1c(=O)[nH]c2cc(C(=O)NCc3ccccc3Cl)ccc2c1=O [NCGC00104879-01, N-(2-chlorobenzyl)-3-(2-methoxyethyl)-2,4-dioxo-1,2,3,4-tetrahydroquinazoline-7-carboxamide]	No	No	–	IC50 (Zika virus; [4]): > 30 µM
COc1cc(C2CC(=O)Nc3cc4c(cc32)OCCO4)cc(Br)c1OC (centres unmarked) [NCGC00107055-01, 9-(3-bromo-4,5-dimethoxyphenyl)-2,3,8,9-tetrahydro-[1,4]dioxino[2,3-g]quinolin-7(6H)-one]	No	No	0.0285	–
CCOC(=O)c1ccc(N2C(=O)c3[nH]nc(-c4ccc(OC)cc4)c3C2c2ccc(C)cc2)cc1 (centres unmarked) [NCGC00108525-01, ethyl 4-(3-(4-methoxyphenyl)-6-oxo-4-(p-tolyl)-4,6-dihydropyrrolo[3,4-c]pyrazol-5(1H)-yl)benzoate]	No	Yes	–	IC50 (Zika virus; Zika virus, Vero): 0.137 µM
CCOC(=O)c1ccc(N2C(=O)c3[nH]nc(-c4ccco4)c3C2c2ccc(C)cc2)cc1 (centres unmarked) [NCGC00108581-01, ethyl 4-(3-(furan-2-yl)-6-oxo-4-(p-tolyl)-4,6-dihydropyrrolo[3,4-c]pyrazol-5(1H)-yl)benzoate]	No	Yes	2.42	–
CC1=Nc2cc(C(=O)NCc3ccccc3Cl)ccc2Sc2c(C)ccc(C)c21 [NCGC00112058-01, N-(2-chlorobenzyl)-1,4,11-trimethyldibenzo[b,f][1,4]thiazepine-8-carboxamide]	No	No	–	IC50 (Zika virus; [4]): > 30 µM
COC(=O)c1cc2occc2n1Cc1nc(-c2ccc(C)cc2)oc1C [NCGC00113159-01, methyl 4-[[5-methyl-2-(4-methylphenyl)-1,3-oxazol-4-yl]methyl]furo[3,2-b]pyrrole-5 - carboxylate]	No	No	–	IC50 (Zika virus; [4]): > 30 µM
CC(C)(C)c1ccc(C(=O)Nc2ccc3c(c2)CCCN3C(=O)c2cccs2)cc1 [NCGC00131231-01, 4-(tert-butyl)-N-(1-(thiophene-2-carbonyl)-1,2,3,4-tetrahydroquinolin-6-yl)benzamide]	No	No	7.6	–
CCC(C)C1NC(=O)C2CCCN2C(=O)C(CC(C)C)OC(=O)CCNC(=O)C(C)N(C)C(=O)C(C(C)C)N(C)C1=O (centres unmarked) [NCGC00169957-03, 3-(sec-butyl)-16-isobutyl-6-isopropyl-5,8,9-trimethyldodecahydropyrrolo[1,2-d][l]oxa[4,7,10,13,16] pentaazacyclononadecine-1,4,7,10,14,17(11H,16H)-hexaone] (cyclo([ξLac(3-iPr)]PI[NMeV][NMeA][βAla]); configuration not given here)	–	–	–	Anti-DENV Activity at 1 uM (SNB-19 cells) (dengue virus; 1 uM): No; Anti-DENV Activity at 10 uM (SNB-19 cells) (dengue virus; 10 uM): Yes; IC50 (Zika virus; Zika virus, Vero): 0.613 µM
CC(=O)OC[C@]12CCC(C)=C[C@H]1O[C@@H]1[C@H](O)[C@@H](OC(C)=O)[C@@]2(C)[C@]12CO2 [NCGC00179895-03, ((2S,2′R,3′R,4′S,5′S,5a′R,9a′R)-4′-acetoxy-3′-hydroxy-5′,8′-dimethyl-2′,3′,4′,5′,7′,9a′-hexahydrospiro[oxirane-2,10′-[2,5]methanobenzo[b]oxepin]-5a′(6′H) - yl)methyl acetate]	–	–	–	Anti-DENV Activity at 1 uM (SNB-19 cells) (dengue virus): Yes; Anti-DENV Activity at 10 uM (SNB-19 cells) (dengue virus): Yes
O=c1nc[nH]c2c1ccn2C1OC(CO)C(O)C1O (centres unmarked) [NCGC00246910-02, 7-(3,4-dihydroxy-5-(hydroxymethyl)tetrahydrofuran-2-yl)-1,7-dihydro-4H-pyrrolo[2,3-d]pyrimidin-4-one]	No	Yes	0.27	–
O=c1[nH]c(=O)n(C2C[C@@H](O)[C@@H](CO)O2)cc1F (stereo partly drawn) [NCGC00263862-02, 5-fluoro-l-((4R,5R)-4-hydroxy-5-(hydroxymethyl)tetrahydrofuran-2-yl)pyrimidine-2,4(1H,3H)-dione]	No	No	0.0165	–
O=C1N[C@@H]2C(=C[C@H](O)[C@@H](O)[C@H]2O)c2cc3c(c(O)c21)OCO3 [NCGC00357393-02, (2S,3R,4S,4aR)-2,3,4,7-tetrahydroxy-3,4,4a,5-tetrahydro-[1,3]dioxolo[4,5-j] phenanthridin-6(2H)-one]	–	–	–	Anti-DENV Activity at 1 uM (SNB-19 cells) (dengue virus; 1 uM): Yes; Anti-DENV Activity at 10 uM (SNB-19 cells) (dengue virus; 10 uM): Yes; IC50 (Zika virus): 0.000674 µM
CC[C@H](C)[C@@H]([C@@H](CC(=O)N1CCC[C@H]1[C@H](OC)[C@@H](C)C(=O)N[C@@H](Cc1ccccc1)c1nccs1)OC)N(C)C(=O)[C@@H](NC(=O)[C@H](C(C)C)N(C)C)C(C)C [NCGC00378623-01, (S)-2-((S)-2-(dimethylamino)-3-methylbutanamido)-N-((3R,4S,5S)-3-methoxy-1-((S)-2-((1R,2R)-1-methoxy-2-methyl-3-oxo-3-(((S)-2-phenyl-1-(thiazol-2-yl)ethyl)amino)propyl)pyrrolidin-1-yl)-5-methyl-1-oxoheptan-4-yl)-N,3-dimethylbutanamide]	No	No	–	–
CC(=O)OC[C@]12C[C@H](OC(=O)CC(C)C)C(C)=C[C@H]1O[C@@H]1[C@H](O)[C@@H](OC(C)=O)[C@@]2(C)[C@]12CO2 [NCGC00387651-01, (2S,2′R,3′R,4′S,5′S,5a′R,7′S,9a′R)-4′-acetoxy-5a′-(acetoxymethyl)-3′-hydroxy-5′,8′-dimethyl-2′,3′,4′,5′,5a′,6′,7′,9a′-octahydrospiro[oxirane-2,10′-[2,5]methanobenzo[b]oxepin]-7′-yl 3 - methylbutanoate]	–	–	–	Anti-DENV Activity at 1 uM (SNB-19 cells) (dengue virus): Yes; Anti-DENV Activity at 10 uM (SNB-19 cells) (dengue virus): Yes
